± gives the expanded uncertainty stated by the source.
Details: Liquid, Closed cell (Static) method

Compound | vapor or sublimation pressure (273.15 K) [kPa] | vapor or sublimation pressure (293.15 K) [kPa] | vapor or sublimation pressure (313.15 K) [kPa] | vapor or sublimation pressure (333.15 K) [kPa] | vapor or sublimation pressure (353.15 K) [kPa]
O=C=O [carbon dioxide] | 3487 ± 13 |  |  |  | 
FC(F)Cl [chlorodifluoromethane] | 498 ± 3 | 911 ± 3 | 1529 ± 4 | 2426 ± 5 | 3664 ± 7
C=C [ethene] | 4094 ± 16 |  |  |  | 

From the NIST ThermoML archive (doi:10.1016/j.fluid.2017.08.005)
